Assay results from US10829731B2, “Biocatalysts for conversion of thermochemical waste streams” (Alliance for Sustainable Energy, LLC, priority 2018, dated 2020).

Test system: GFP-expressing strain of P. putida KT2440
Assay: GFP immunoblot of cell-free extract after GA or FPF treatment
Format: cell-based, Pseudomonas putida
Settings: GA (2 mM) or FPF (0.05% (v/v))
From the text: Aldehydes, the key toxic component of the FPF stream, can confer molecular toxicity via protein damage. Indeed, GA, the major aldehyde present in FPF is a well-known post-translational protein-damaging agent. […] Cell-free extract from these conditions was immunoblotted to detect the presence of GFP. […] Furthermore, GFP inclusion bodies formed in cells treated with GA or FPF, which might be due to misfolding or cross-linking of the GFP protein. […] Thus, in an embodiment, overexpression of chaperones to rescue damaged or misfolded proteins was chosen as a strategy to enhance the tolerance of P. putida to FPF.
The fate of GFP in the LJ014 strain after treatment with FPF was then examined.

| Compound | free-GFP level relative to the untreated controls [%] |
| --- | --- |
| O=CCO [Glycolaldehyde] | 46.8 |

Test system: P. putida KT2440
Assay: microbe, parasite or virus in culture
Format: cell-based
Settings: Pseudomonas putida, KT2440
Procedure: Toxicity of the TC wastewater streams and toxic compounds present in FPS were evaluated in microplate growth assays performed in a Bioscreen C MBR analyzer (Growth Curves US, Piscataway, N.J.). Pre-cultures of the strains were prepared by inoculating 25 mL M9 medium supplemented with 20 mM glucose in a 125 mL baffled flask to an OD600 of 0.05-0.1 and incubating shaking at 225 rpm, 30° C. At mid log phase (OD600 0.5-1.0), cells were harvested by centrifugation at 13,000 rpm, and the cell pellets were washed twice and resuspended in M9 medium without a carbon source. These resuspended cells were used to inoculate microplate wells containing 200 μL of M9 medium supplemented with 20 mM glucose and various concentrations of TC wastewater streams or their components to OD600 0.1. Microplates were then incubated at 30° C. with maximum shaking and growth was measured by reading the absorbance (OD420-580) every 30 minutes. Growth rates were calculated according to the growth curve equation.
The compounds present in the FPF stream were classified according to chemical functionality, aldehydes, ketones, phenolics, or acids, and the growth rate of P. putida was evaluated against each class of compounds.

| Compound | EC50 [mM] |
| --- | --- |
| CC(=O)CCO [Methylolacetone] | 28.8 |
| C/C=C/C=O [Crotonaldehyde] | 17.4 |
| O=CC=O [Glyoxal] | 3.5 |
| Cc1cccc(O)c1 [m-Cresol] | 3.46 |
| Cc1ccccc1O [o-Cresol] | 3.12 |
| CC(C)=O [Acetone] | 39.3 |
| CC=O [Acetaldehyde] | 16.2 |
| C=CC(=O)O [Acrylic acid] | 11.7 |
| Oc1ccccc1O [Catechol] | 42.4 |

Same assay, conditions: Pseudomonas putida, KT2440, effective concentration that decreases the growth rate by 50%; M9 medium with 20 mM glucose, 30° C.

| Compound | EC50 [mM] |
| --- | --- |
| C=O [Formaldehyde] | ~2 |
| Oc1ccccc1 [Phenol] | 9.24 |

Same assay, conditions: Pseudomonas putida, KT2440, effective concentration that decreases the growth rate by 50%; M9 medium with 20 mM glucose, 30° C.; read-out: EC50

| EC50 [mM] | Compound |
| --- | --- |
| 2.52 | Cc1ccc(C)c(O)c1 [2,5-Xylenol] |
| 6.34 | COc1cc(C=O)ccc1O [Vanillin] |
| 13.3 | COc1ccccc1O [Guaiacol] |
| 13.9 | O=Cc1ccoc1 [3-Furancarboxaldehyde] |
| 4.21 | COc1cccc(OC)c1O [Syringol] |
| 22.4 | CCC(=O)O [Propionic acid] |
| 7.77 | O=C1C=CCO1 [2-Butenolide] |
| 2.25 | Cc1ccc(O)cc1 [p-Cresol] |
| 27.8 | CCC(=O)CO [2-Oxobutanol] |
| 5.02 | CC1=CCOC1=O [2-Methyl-butenolide] |
| 35.2 | CCCC(=O)O [Butanoic acid] |
| 64.1 | CC(=O)O [Acetic acid] |
| 14.3 | O=Cc1ccc(CO)o1 [5-HMF, 5-(Hydroxymethyl)furfural] |

| Compound | EC50 [mM] |
| --- | --- |
| O=CCO [Glycolaldehyde] | ~2 |
| O=Cc1ccco1 [Furfural] | 21 |
| C=C(CC(=O)O)C(=O)O [Itaconic acid] | 89.4 |

Same assay, conditions: effective concentration that decreases the growth rate by 50%; M9 medium with 20 mM glucose, 30° C.

| Compound | EC50 [mM] |
| --- | --- |
| C=O [Formaldehyde] | 2.07 |

Same assay, conditions: effective concentration that decreases the growth rate by 50%; M9 medium with 20 mM glucose, 30° C.; read-out: EC50

| Compound | EC50 [mM] |
| --- | --- |
| Cc1ccc(C=O)o1 [5-methylfufaral] | 15 |
| O=CCO [Glycolaldehyde] | 2.14 |
| CC(=O)CO [Acetol] | 12.4 |
| O=C1CCCC1 [Adipic ketone] | 9.8 |
